Measured values as given in patent publication US4426519A, “7-(2-Amino-4-thiazolyl)-acetamido cephalosporanic acids” (Roussel Uclaf, priority 1979, dated 1984).
Converted amounts (≈) assume the structure as drawn. Counter-ions that a name gives are not always drawn. Like-named read-outs stand apart in the source and are kept apart here.

How the values were obtained:
Assay in all cases: MIC, dilution in liquid medium
Format in all cases: cell-based
[1] = test system: Bacillus subtilis ATCC 6 633
Method: (§1) The method used was a dilution of a liquid medium where a series of tubes received the same quantity of a sterile nutritive media and increasing doses of the test compounds were placed therein. Then each tube was seeded with a bacterial strain and was incubated for 24 to 48 hours at 37° C. in an oven. The increasing inhibition was determined by transillulumination to determine the minimum inhibiting concentration (MIC in μg/ml) and the results are reported in the following Tables.

[2] = test system: Escherichia Coli Exp. TO26 B6
Method: as §1

[3] = test system: Escherichia Coli Resistant Gentamycine, Tobramycine R 55 123 D
Method: as §1

[4] = test system: Escherichia Coli Resistant Tetracycline ATCC 11 303
Method: as §1

[5] = test system: Escherichia Coli sensitive Tetracycline ATCC 9 637
Method: as §1

[6] = test system: Klebsiella pneumoniae 2 536 Resistant Gentamycine
Method: as §1

[7] = test system: Klebsiella pneumoniae Exp. 52 145
Method: as §1

[8] = test system: Proteus mirabilis (indol-) A 235
Method: as §1

[9] = test system: Providencia Du 48
Method: as §1

[10] = test system: Salmonella typhimurium 420; conditions: Salmonella enterica
Method: as §1

[11] = test system: Serratia Resistant Gentamycine 2 532
Method: as §1

[12] = test system: Staphylococcus aureus ATCC 6 538 Pen Sensitive
Method: as §1

[13] = test system: Staphylococcus aureus UC 1 128 Pen-resistant
Method: as §1

[14] = test system: Staphylococcus aureus exp.n°54 146
Method: as §1

[15] = test system: Streptococcus pyogenes A 561
Method: as §1

[16] = test system: Streptococcus faecalis 5 432; conditions: Enterococcus faecalis, 5432, 24 h
Method: as §1

| Compound | MIC ([1]; ATCC6, 24 h) | MIC ([1]; ATCC6, 48 h) | MIC ([2]; 24 h) | MIC ([2]; 48 h) | MIC ([3]; 24 h) | MIC ([3]; 48 h) | MIC ([4]; ATCC11, 24 h) | MIC ([4]; ATCC11, 48 h) | MIC ([5]; ATCC9, 24 h) | MIC ([5]; ATCC9, 48 h) | MIC ([8]; 24 h) | MIC ([8]; 48 h) | MIC ([12]; ATCC6, 24 h) | MIC ([12]; ATCC6, 48 h) | MIC ([13]; UC1, 24 h) | MIC ([13]; UC1, 48 h) | MIC ([14]; 24 h) | MIC ([14]; 48 h) | MIC ([15]; A561, 24 h) | MIC ([15]; A561, 48 h) | further results |
| --- | --- | --- | --- | --- | --- | --- | --- | --- | --- | --- | --- | --- | --- | --- | --- | --- | --- | --- | --- | --- | --- |
| CC(=O)OCC1=C(C(=O)O)N2C(=O)C(NC(=O)/C(=N\OCCSC#N)c3csc(N)n3)C2SC1 (stereo not drawn) [Example 7, Syn isomer of 3-acetoxymethyl-7-[2-(2-amino-4-thiazolyl)-2-(2-thiocyanatoethoxyimino)-acetamido]-ceph-3-eme-4-carboxylic acid] | 1 µg/mL (≈ 1.9 µM) | 2 µg/mL (≈ 3.8 µM) | 2 µg/mL (≈ 3.8 µM) | 2 µg/mL (≈ 3.8 µM) | 1 µg/mL (≈ 1.9 µM) | 1 µg/mL (≈ 1.9 µM) | 0.2 µg/mL (≈ 0.38 µM) | 0.2 µg/mL (≈ 0.38 µM) | 5 µg/mL (≈ 9.5 µM) | 5 µg/mL (≈ 9.5 µM) | 0.2 µg/mL (≈ 0.38 µM) | 0.5 µg/mL (≈ 0.95 µM) | 1 µg/mL (≈ 1.9 µM) | 1 µg/mL (≈ 1.9 µM) | 1 µg/mL (≈ 1.9 µM) | 1 µg/mL (≈ 1.9 µM) | 1 µg/mL (≈ 1.9 µM) | 2 µg/mL (≈ 3.8 µM) | 0.02 µg/mL (≈ 0.038 µM) | 0.02 µg/mL (≈ 0.038 µM) | MIC ([6]; 24 h): 5 µg/mL (≈ 9.5 µM); MIC ([6]; 48 h): 5 µg/mL (≈ 9.5 µM); MIC ([7]; EXP.52145, 24 h, read-out: MIC): 0.5 µg/mL (≈ 0.95 µM); MIC ([7]; EXP.52145, 48 h, read-out: MIC): 0.5 µg/mL (≈ 0.95 µM); MIC ([9]; DU48, 24 h, read-out: MIC): 10 µg/mL (≈ 19 µM); MIC ([9]; DU48, 48 h, read-out: MIC): 10 µg/mL (≈ 19 µM); MIC ([10]; 24 h): 1 µg/mL (≈ 1.9 µM); MIC ([10]; 48 h): 3 µg/mL (≈ 5.7 µM); MIC ([11]; 24 h): 2 µg/mL (≈ 3.8 µM); MIC ([11]; 48 h): 3 µg/mL (≈ 5.7 µM) |
| CC(=O)OCC1=C(C(=O)O)N2C(=O)C(NC(=O)/C(=N\OCCSC(=N)NN)c3csc(N)n3)C2SC1 (stereo not drawn) [Example 8, Internal salt of syn isomer of 3-acetoxymethyl-7-[2-(2-amino-4-thiazolyl)-2-(2-iminohydrazinomethylthioethoxyimino)acetamido]-ceph-3-eme-4-carboxylic acid] | 1 µg/mL | 3 µg/mL | 1 µg/mL | 1 µg/mL | 1 µg/mL | 1 µg/mL | 0.5 µg/mL | 0.5 µg/mL | 2 µg/mL | 2 µg/mL | 0.2 µg/mL | 0.2 µg/mL | 1 µg/mL | 2 µg/mL | 2 µg/mL | 2 µg/mL | 1 µg/mL | 2 µg/mL | 0.02 µg/mL | 0.05 µg/mL | MIC ([6]; 24 h): 5 µg/mL; MIC ([6]; 48 h, read-out: MIC): 10 µg/mL; MIC ([7]; EXP.52145, 24 h): 1 µg/mL; MIC ([7]; EXP.52145, 48 h): 1 µg/mL; MIC ([10]; 24 h): 1 µg/mL; MIC ([10]; 48 h): 2 µg/mL; MIC ([11]; 24 h): 1 µg/mL; MIC ([11]; 48 h): 2 µg/mL |
| CC(=O)OCC1=C(C(=O)O)N2C(=O)C(NC(=O)/C(=N\OC(F)F)c3csc(N)n3)C2SC1 (stereo not drawn) [Example 9, Syn isomer of 3-acetoxymethyl-7-[2-(2-amino-4-thiazolyl)-2-difluoromethoxyimino-acetamido]-ceph-3-eme-4-carboxylic acid] | 1 µg/mL (≈ 2.03 µM) | 5 µg/mL (≈ 10.2 µM) | – | – | – | – | 0.05 µg/mL (≈ 0.102 µM) | 0.1 µg/mL (≈ 0.203 µM) | – | 1 µg/mL (≈ 2.03 µM) | 0.05 µg/mL (≈ 0.102 µM) | 0.05 µg/mL (≈ 0.102 µM) | 1 µg/mL (≈ 2.03 µM) | 1 µg/mL (≈ 2.03 µM) | 1 µg/mL (≈ 2.03 µM) | 2 µg/mL (≈ 4.07 µM) | 1 µg/mL (≈ 2.03 µM) | 2 µg/mL (≈ 4.07 µM) | 0.05 µg/mL (≈ 0.102 µM) | 0.05 µg/mL (≈ 0.102 µM) | MIC ([3]; 24 h, read-out: MIC): 0.2 µg/mL (≈ 0.407 µM); MIC ([3]; 48 h, read-out: MIC): 0.2 µg/mL (≈ 0.407 µM); MIC ([5]; ATCC9, 24 h, read-out: MIC): 0.5 µg/mL (≈ 1.02 µM); MIC ([6]; 24 h, read-out: MIC): 0.5 µg/mL (≈ 1.02 µM); MIC ([6]; 48 h, read-out: MIC): 0.5 µg/mL (≈ 1.02 µM); MIC ([7]; EXP.52145, 24 h, read-out: MIC): 0.05 µg/mL (≈ 0.102 µM); MIC ([7]; EXP.52145, 48 h, read-out: MIC): 0.05 µg/mL (≈ 0.102 µM); MIC ([9]; DU48, 24 h): 2 µg/mL (≈ 4.07 µM); MIC ([9]; DU48, 48 h): 2 µg/mL (≈ 4.07 µM); MIC ([10]; 24 h, read-out: MIC): 0.5 µg/mL (≈ 1.02 µM); MIC ([10]; 48 h, read-out: MIC): 0.5 µg/mL (≈ 1.02 µM); MIC ([11]; 24 h, read-out: MIC): 0.5 µg/mL (≈ 1.02 µM); MIC ([11]; 48 h, read-out: MIC): 0.5 µg/mL (≈ 1.02 µM); MIC [16]: 5 µg/mL (≈ 10.2 µM) |
